| Compound | melting point |
| --- | --- |
| NCc1nc2ccccc2[nH]1 | 81 to 83 °C |
| N#Cc1cn(-c2c(Cl)cc(C(F)(F)F)cc2Cl)cc1I | 118 to 120 °C |
| COc1cc(Br)c(CCC#N)cc1OC | 78 to 80 °C |
| CN(C(=O)c1ccc(C(C)(C)C)cc1)C1N(C)C(c2ccc(F)cc2)=NC1(C(F)(F)F)C(F)(F)F (stereo unspecified) | 129 to 130 °C |
| CN1CCc2sc(C=C3C(=O)N4C(C(=O)O)=CSC34)cc2C1 (stereo unspecified) | > 25 °C |
| CC1(C)CCc2c(Cl)cc(O)cc21 | 86.5 to 87.5 °C |
| CC(C)n1c(=O)c2ccccc2n(SC(Cl)(Cl)Cl)c1=O | 105 to 106 °C |
| Nc1c(F)c(N2CC[C@@H](C3(NCCO)CC3)C2)c(F)c2c1c(=O)c(C(=O)O)cn2[C@@H]1C[C@@H]1F | 198 to 200 °C |
| O=C(c1ccc(I)cc1)N1CCOCC1 | 116 to 117 °C |
| CC(C)(C)O[C@@H]1C[C@H]2C(=O)O[C@H](C(Cl)(Cl)Cl)N2C1 | 147 °C |
| O=S(=O)(Cl)c1cc(S(=O)(=O)Cl)c2c(Cl)ccc(S(=O)(=O)Cl)c2c1 | 165 to 166 °C |
| COC(=O)c1ccc(C(F)F)nc1C | 135 to 136 °C |
| COCCOC(=O)CCc1cc(C(C)(C)C)c(O)c(C(C)(C)C)c1 | 62 to 64 °C |
| O=S1(=O)N(CCCN2CC=C(c3ccccc3)CC2)c2cccc3cccc(c23)N1CCCN1CC=C(c2ccccc2)CC1 | 140 °C |
| CCCC1=C(CCC)C1(C(=O)Nc1ccc(Br)cc1C)C(=O)OC | 52 to 54 °C |
| O=C(NOC1CCCCO1)c1ccccc1 (stereo unspecified) | 130 to 134 °C |
| CC1NC(=O)NN=C1c1ccc(N2CCCC2)cc1 (stereo unspecified) | 276 to 281 °C |
| CCOC(=O)c1c(C)ccc(Cc2c[nH]cn2)c1O | 101 to 103 °C |
| CCOC(=O)N1C(NC(C)C)=NS(=O)(=O)c2c1sc(C)c2C#N | 116 to 119 °C |

| Compound | melting point |
| --- | --- |
| CC(=O)c1ccc(C(=C2CC(C)(C)CC(C)(C)C2)c2ccc(O)cc2)cc1 | 195 to 196 °C |
| COc1ccc(CNC(=S)NNC(=O)C(N)=O)cc1 | 185 to 190 °C |
| COc1cc(CC2NC(=O)NC2=O)cc(OC)c1OC (stereo unspecified) | 180 to 181 °C |
| CCOC(=O)C1(Nc2ccc(C(O)(C(F)(F)F)C(F)(F)F)cc2)CCC(C(C)(C)C)CC1 (stereo unspecified) | 107 °C |
| CCOC(=O)C1=C(CSC(C)=O)NC(C)=C(C#N)C1c1cccc([N+](=O)[O-])c1 (stereo unspecified) | 155 to 157 °C |
| COc1ccc2c3c1OC1C(=O)C(C)CC4(OC)C(C2)N(C)CCC314 (stereo unspecified) | 215 to 221 °C |
| O=C(Nc1ccc(C[C@H](NS(=O)(=O)N2CCSCC2)C(=O)O)cc1)c1c(Cl)cncc1Cl | 173 °C |
| Cc1nnc(Sc2nc3ccc(Cl)cc3nc2C)s1 | 189 to 190 °C |
| CC(=O)C1CCC2C3CCC4CC(O)C(N5CCOC(C)(C)C5)CC4(C)C3CCC12C (stereo unspecified) | 174 to 176 °C |
| CCOC(=O)COCCCC(=CC(N)C(=O)O)CP(=O)(O)O (stereo unspecified) | 215 to 218 °C |
| COc1ccc(C2=NN(C3CCN(C(=O)NC(C)(C)C)CC3)C(=O)CC2)cc1OC | 76 to 78 °C |
| O=S1c2ccccc2C(CCCl)(CCCl)c2ccccc21 | 126 to 127 °C |
| O=C(O)c1c(Cl)c(Cl)c(Cl)c(Cl)c1C(=O)Nc1ccc(S(=O)(=O)C(F)(F)F)cc1 | 92 to 97 °C |
| CC1=CC(=O)CC(c2cccc(Cl)c2)N1C (stereo unspecified) | 82 °C |
| Cc1cc(C)cc(S(=O)(=O)c2c(C(=O)O)[nH]c3ccc(Cl)cc23)c1 | 277 to 278 °C |
| C=CCSC1(C(F)(F)F)CN(CC)C(=O)Nc2ccc(Cl)cc21 (stereo unspecified) | 138 to 142 °C |
| O=C(O)C1CCN(Cc2ccc(Cl)c(Cl)c2)CC1 | 232 °C |
| Nc1ccc(OC2=C(Oc3ccc(N)cc3C(F)(F)F)C(F)(F)C(F)(F)C2(F)F)c(C(F)(F)F)c1 | 88 to 93 °C |
| O=P(O)(O)CCCCCCCCCCCC(F)(F)C(F)(F)C(F)(F)C(F)(F)C(F)(F)C(F)(F)C(F)(F)C(F)(F)F | 115 to 117 °C |

| Compound | melting point |
| --- | --- |
| CCCn1c(=O)c2[nH]c(C3CCCC3)nc2n(CCc2ccc(NC(=O)C3CCCC3)cc2)c1=O | > 270 °C |
| CC1Sc2c(C(=O)O)c(=O)c3cc(F)c(N4CCNC(=O)C4)cc3n21 (stereo unspecified) | 198 to 200 °C |
| Cc1csc2ncc(CO)n12 | 161 to 162 °C |
| CC(=O)c1ccc(NC(=O)Nc2ccc(S(N)(=O)=O)cc2)cc1 | 258 to 260 °C |
| O=C1Nc2cc3c(cc2C12COc1cc4c(cc12)CCO4)OCCO3 (stereo unspecified) | > 250 °C |
| CC(O)=C(C#N)C(=O)Nc1ccc(F)cc1 | 165 to 166 °C |
| CC(C)(C)C(O)C(Oc1ccc(Cl)cc1)n1ccnc1 (stereo unspecified) | 145 to 147 °C |
| Cc1ccc(-c2cc(F)c3c(c2)CC(CN)O3)cc1 (stereo unspecified) | > 250 °C |
| COc1ccc2c(c1C)OC(C)(C)CC2=O | 105 to 107 °C |
| O=Cc1cc(C(=O)CCl)c[nH]1 | 178 to 179 °C |
| CON=C(C(=O)O)c1csc(=N)n1O | 209 to 210 °C |
| O=C(O)c1cc2cc(F)ccc2n1Cc1ccncc1 | 282 to 283 °C |
| CC(C)(CCl)C(=O)N(O)Cc1ccccc1F | 110 to 112 °C |
| CCCCCCCCCCCCCCCCCC(=O)c1cc(C(=O)O)ccc1O | 170 °C |
| ClC12CC3CC(CC(C3)C1=C1C3CC4CC(C3)CC1C4)C2 | 142 to 143 °C |
| Cn1ncc2c1-c1c(SC(C)(C)C)sc(C(N)=O)c1CC2 | 146 to 147 °C |
| CC(C)CN1N(C)Nc2c3ncnc-3c3ccncc3n21 | 157 to 158 °C |
| CCCN(C(=O)CC)c1c(C#N)cnn1-c1ccc(OC(F)(F)F)cc1Cl | 83 °C |

Next, values leading:

| melting point | Compound |
| --- | --- |
| 140 to 145 °C | COc1ccc(-c2ccc3[nH]c4c(c3c2)CCN(C(=O)c2ccccc2)CC4)cc1 |
| 115 °C | O=C(O)C(c1ccc2c(c1)OCO2)n1nc(-c2ccccn2)ccc1=O (stereo unspecified) |
| 203 to 204 °C | CC1(C)CCC(C)(C)c2cc(C(O)C#Cc3ccc(C(=O)O)c(O)c3)ccc21 (stereo unspecified) |
| 142 to 143 °C | CCCCc1oc2ccccc2c1C(=O)NCc1ccc2cc(OCC(=O)OC)ccc2c1 |
| 94 to 97 °C | CC1CCN(C(=O)C(C)Oc2ccc(Oc3ccc(C(F)(F)F)cn3)cc2)O1 (stereo unspecified) |
| 229 to 231 °C | O=C(Nc1ccccc1)Nc1ncc(Oc2ccc(Cl)cc2)c(N2CCOCC2)n1 |
| 329 to 330 °C | O=C(c1ccccc1)c1c[nH]c(=O)[nH]1 |
| 132 to 134 °C | COc1c(OC)c(OC)c2c(=O)cc(-c3ccc(OCc4ccccc4)cc3)oc2c1OC |
| 340 to 342 °C | O=c1[nH]c2cc(-c3ccccc3)nnc2c2ccccc12 |
| 206 to 208 °C | COCCN1CCN(S(=O)(=O)c2ccc(-c3cnc4[nH]c(CCc5cc(OC)ccn5)nc4c3)cc2)CC1 |
| 225 to 227 °C | O=C(Nc1ccc(-n2nc(C(F)(F)F)cc2C(F)(F)F)cc1)Nc1ccc(Cl)cc1[N+](=O)[O-] |
| 170 °C | O=C(c1ccc2ncccc2c1)c1ccc2nc(Cl)nc(-c3cccc(Cl)c3)c2c1 |
| 164 to 165 °C | Cn1cc(Sc2ccccc2)c(=O)c(-c2ccccc2)c1 |
| 123 to 124 °C | O=C1C(c2ccccc2)=C(c2ccccc2)C(=O)N1Cc1ccccc1 |
| 71 to 74 °C | CC1CCC(=O)CC1S(=O)(=O)c1ccccc1 (stereo unspecified) |
| > 350 °C | COc1ccccc1-n1c(=O)[nH]c2c(C(N)=O)nc(-c3ccc(C(N)=O)cc3)nc21 |
| 173 to 177 °C | COc1ccc(N2Cc3cnc(Nc4ccc(F)cc4)nc3N([C@@H](C)CO)C2=O)c(F)c1 |
| 270 to 272 °C | COc1cc(C(=O)O)ccc1Cn1cc(/C=C/C(=O)N(C)C)c2ccc(/C=C/C(=O)N(C)C)cc21 |
| 107 to 108 °C | O=C(CCl)N1CCOc2ccccc21 |
| 105 to 106 °C | CC(C)OC(=O)n1ncc2cc(C(O)(c3cn(C)c4ccccc34)C(F)(F)F)ccc21 (stereo unspecified) |
| 216 to 217 °C | NC(=O)N1C(=O)C(C(=O)c2sccc2Br)c2cc(Cl)ccc21 (stereo unspecified) |
| 156 to 157 °C | CCOC(=O)c1ccc(CCN2CCN(S(=O)(=O)c3ccccc3)CC2)cc1 |
| 190 to 192 °C | CS(=O)(=O)c1ccc(-c2c(-c3ccccc3)nc3sccn23)cc1 |

| melting point | Compound |
| --- | --- |
| 160 to 165 °C | O=C(NO)c1cc2ccccc2cn1 |
| 171 to 173 °C | CC1(C)COc2ccc(C(=O)O)cc21 |
| 169 to 170 °C | O=C(Nc1ccccn1)c1c(OC(F)F)ccc2oc3ccc(C(F)(F)F)cc3c12 |
| 130 to 132 °C | CCCN1C(=O)N2C[C@@H](Cc3ccccc3)N=C2c2[nH]c(COCc3ccccc3)nc21 |
| 185 to 188 °C | O=C(C=Cc1ccc2ccccc2c1)c1cnc2sc3c(n12)CCCCC3 |
| 141 °C | CC(C)(C)OC(=O)NNC(=O)C=Cc1cc(=O)c(OCc2ccccc2)c[nH]1 |
| 282 to 285 °C | O=[N+]([O-])c1ccc(-c2c(Cl)ncnc2NS(=O)(=O)c2ccc(Cl)cc2)cc1 |
| 108 °C | CCOC(=O)NN(C)C(=O)Nc1ccc(OCc2ccc(Cl)cc2)cc1F |
| 46 to 47 °C | CC(Br)=C(c1ccccc1)c1ccccc1 |
| 100 to 102 °C | CCOC(=O)C(CC)Cc1ccc(NC(=O)Cc2ccc(-n3cccc3)cc2)cc1 (stereo unspecified) |
| 185 to 186 °C | CCCC(Cl)(Cl)C(NC(=O)c1ccc(Cl)cc1)NC(=C[N+](=O)[O-])Nc1cccnc1 (stereo unspecified) |
| 89 °C | CC1CCN(c2ccc(N)cc2C(=O)c2ccc(Cl)cc2)CC1 |
| 119 to 120 °C | CCc1nccc(NC2COC(c3ccccc3)OC2)c1Cl (stereo unspecified) |
| 196 °C | Nc1ccc2ccc(Oc3ccccc3)nc2n1 |
| 132 to 134 °C | Cn1c(C2CC2)nc2c(O[C@@H]3c4ccccc4C[C@H]3O)cc(C(=O)O)cc21 (relative stereo) |
| 96 to 97 °C | CC(C)CON(Cc1ccc(F)cc1)C(=O)C1=C(O)C(=O)N(C)C1 |
| 187 to 189 °C | O=C(O)c1ccc(C(=O)N[C@@H](Cc2c[nH]c3ccccc23)C(=O)O)cc1 |
| 130 to 131 °C | Cc1nc(-c2ccccc2)nc(-c2cccc([N+](=O)[O-])c2)c1C(C)N1CCN(C)CC1 (stereo unspecified) |
| 200 to 202 °C | Brc1ccc2cc(SN3CCN(c4ccncc4)CC3)ccc2c1 |
| 98 °C | O=S(=O)(On1nnc2ccccc21)c1cccnc1 |
| 112 to 114 °C | COc1ccccc1-c1ccc(C)n1CC[C@H]1C[C@H](O)CC(=O)O1 (relative stereo) |
| 136 to 137 °C | Cc1oc(-c2ccccc2)nc1COc1cc(COc2ncccc2CO)on1 |

Reference: a melting point compilation (Tetko et al.; mined from patent text by program, amines drawn as free bases though some values may be those of a salt)
